What was measured:
[1] = Sensory evaluation of aqueous solution I containing (E)-2-nonenal 1 ppb: off-flavor intensity and masking component intensity; conditions: (E)-2-nonenal 1 ppb, average score 0-4
Summary of the method: (§1)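 Relative off-flavor ratings (0–4) used the unmasked degradant solution as 4 and pure ion-exchanged water as 0. Intensity of the added nootkatone was scored absolutely, 0–4, by eight experienced panelists.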

[2] = Sensory evaluation of aqueous solution II containing (E)-2-octenal 10 ppb: off-flavor intensity and masking component intensity; conditions: (E)-2-octenal 10 ppb, average score 0-4
Summary of the method: as §1

[3] = Sensory evaluation of aqueous solution III containing 1-octen-3-one 1 ppb: off-flavor intensity and masking component intensity; conditions: 1-octen-3-one 1 ppb, average score 0-4
Summary of the method: as §1

[4] = Sensory evaluation of aqueous solution IV containing 1,5-octadien-3-one 100 ppt: off-flavor intensity and masking component intensity; conditions: aqueous solution IV, 1,5-octadien-3-one 100 ppt, average score 0-4
Summary of the method: as §1

[5] = Sensory evaluation of aqueous solution V containing 1-octen-3-ol 10 ppb: off-flavor intensity and masking component intensity; conditions: 1-octen-3-ol 10 ppb, average score 0-4
Summary of the method: as §1

[6] = Sensory evaluation of aqueous solution VI containing 1,5-octadien-3-ol 10 ppb: off-flavor intensity and masking component intensity; conditions: aqueous solution VI, 1,5-octadien-3-ol 10 ppb, average score 0-4
Summary of the method: as §1

[7] = Sensory evaluation of degradation component-added soymilk I ((E)-2-nonenal 5 ppb); conditions: average panel score
Description: (§2) To commercially available soymilk (“Delicious Unadjusted Soymilk” manufactured by Kikkoman Corporation), each degradation component was added to prepare degradation component-added soymilks at the concentrations listed in Table 23. To these degradation component-added soymilks, 1,4-dioxacycloheptadecan-5,17-dione was added at the concentrations listed in Table 23 to confirm the intensity of the off-flavor (masking effect) and the intensity of the masking components (impact on the flavor of the soymilk itself) for each sample.
(§3) Eight experienced panelists were selected to conduct a sensory evaluation similar to that of Example 1. […]

[8] = Sensory evaluation of degradation component-added soymilk II (1-octen-3-ol 500 ppb); conditions: average panel score
Description: as §2, §3

[9] = Overall conclusion of the sensory evaluation across aqueous solutions I to VI
Summary of the method: as §1

[10] = Overall conclusion of the sensory evaluation across soymilks I and II
Description: as §2
Eight experienced panelists were selected to conduct a sensory evaluation similar to that of Example 1.
The same method as in Example 20 was used to confirm the intensity of the off-flavor (masking effect) derived from unsaturated fatty acids by α-methyl ionone and the intensity of the masking components (impact on the flavor of the soymilk itself).
The same method as in Example 20 was used to confirm the intensity of the off-flavor (masking effect) derived from unsaturated fatty acids by menthyl 3-hydroxybutyrate and the intensity of the masking components (impact on the flavor of the soymilk itself).

For O=C1CCCCCCCCCCCC(=O)OCCO1 [1,4-Dioxacycloheptadecan-5,17-Dione, 1,4-dioxacycloheptadecan-5,17-dione], the “Off-Flavor Intensity” value ([1]; 0.001 ppt added) was 3.5 points, the “Off-Flavor Intensity” value ([1]; 0.01 ppt added) was 3.3 points and the “Off-Flavor Intensity” value ([1]; 0.1 ppt added) was 2.9 points. For the same compound, the “Off-Flavor Intensity” value ([1]; 1 ppb added) was 1.6 points, the “Off-Flavor Intensity” value ([1]; 1 ppt added) was 2.8 points and the “Off-Flavor Intensity” value ([1]; 10 ppb added) was 1.0 points. For the same compound, the “Off-Flavor Intensity” value ([1]; 10 ppt added) was 2.3 points, the “Off-Flavor Intensity” value ([1]; 100 ppb added) was 0.3 points and the “Off-Flavor Intensity” value ([1]; 100 ppt added) was 2.0 points. The “Off-Flavor Intensity” value ([2]; 0.001 ppt added) was 3.4 points, the “Off-Flavor Intensity” value ([2]; 0.01 ppt added) was 3.4 points and the “Off-Flavor Intensity” value ([2]; 0.1 ppt added) was 3.1 points. For the same compound, the “Off-Flavor Intensity” value ([2]; 1 ppb added) was 1.8 points, the “Off-Flavor Intensity” value ([2]; 1 ppt added) was 2.8 points and the “Off-Flavor Intensity” value ([2]; 10 ppb added) was 1.5 points. For the same compound, the “Off-Flavor Intensity” value ([2]; 10 ppt added) was 2.4 points, the “Off-Flavor Intensity” value ([2]; 100 ppb added) was 0.6 points and the “Off-Flavor Intensity” value ([2]; 100 ppt added) was 2.0 points. The “Off-Flavor Intensity” value ([3]; 0.001 ppt added) was 3.6 points, the “Off-Flavor Intensity” value ([3]; 0.01 ppt added) was 3.4 points and the “Off-Flavor Intensity” value ([3]; 0.1 ppt added) was 3.0 points. For the same compound, the “Off-Flavor Intensity” value ([3]; 1 ppb added) was 1.4 points, the “Off-Flavor Intensity” value ([3]; 1 ppt added) was 2.6 points and the “Off-Flavor Intensity” value ([3]; 10 ppb added) was 1.0 points. The “Off-Flavor Intensity” value ([3]; 10 ppt added) was 2.4 points, the “Off-Flavor Intensity” value ([3]; 100 ppb added) was 0.3 points and the “Off-Flavor Intensity” value ([3]; 100 ppt added) was 1.8 points. For the same compound, the “Off-Flavor Intensity” value ([4]; 0.001 ppt added) was 3.8 points, the “Off-Flavor Intensity” value ([4]; 0.01 ppt added) was 3.5 points and the “Off-Flavor Intensity” value ([4]; 0.1 ppt added) was 3.4 points. For the same compound, the “Off-Flavor Intensity” value ([4]; 1 ppb added) was 2.1 points, the “Off-Flavor Intensity” value ([4]; 1 ppt added) was 3.0 points and the “Off-Flavor Intensity” value ([4]; 10 ppb added) was 1.6 points. The “Off-Flavor Intensity” value ([4]; 10 ppt added) was 2.9 points, the “Off-Flavor Intensity” value ([4]; 100 ppb added) was 1.0 points and the “Off-Flavor Intensity” value ([4]; 100 ppt added) was 2.8 points. For the same compound, the “Off-Flavor Intensity” value ([5]; 0.001 ppt added) was 3.4 points, the “Off-Flavor Intensity” value ([5]; 0.01 ppt added) was 3.1 points and the “Off-Flavor Intensity” value ([5]; 0.1 ppt added) was 2.9 points. The “Off-Flavor Intensity” value ([5]; 1 ppb added) was 1.9 points, the “Off-Flavor Intensity” value ([5]; 1 ppt added) was 2.8 points and the “Off-Flavor Intensity” value ([5]; 10 ppb added) was 1.4 points. For the same compound, the “Off-Flavor Intensity” value ([5]; 10 ppt added) was 2.5 points, the “Off-Flavor Intensity” value ([5]; 100 ppb added) was 0.5 points and the “Off-Flavor Intensity” value ([5]; 100 ppt added) was 2.1 points. The “Off-Flavor Intensity” value ([6]; 0.001 ppt added) was 3.3 points, the “Off-Flavor Intensity” value ([6]; 0.01 ppt added) was 3.0 points and the “Off-Flavor Intensity” value ([6]; 0.1 ppt added) was 2.9 points. The “Off-Flavor Intensity” value ([6]; 1 ppb added) was 1.8 points, the “Off-Flavor Intensity” value ([6]; 1 ppt added) was 2.5 points and the “Off-Flavor Intensity” value ([6]; 10 ppb added) was 1.4 points. The “Off-Flavor Intensity” value ([6]; 10 ppt added) was 2.5 points, the “Off-Flavor Intensity” value ([6]; 100 ppb added) was 0.9 points and the “Off-Flavor Intensity” value ([6]; 100 ppt added) was 2.1 points. For the same compound, the “Masking Component Intensity” value ([7]; 1 ppb added) was 0.3, the “Off-Flavor Intensity” value ([7]; 1 ppb added) was 2.3 and the “Masking Component Intensity” value ([7]; 1 ppm added) was 2.6. For the same compound, the “Off-Flavor Intensity” value ([7]; 1 ppm added) was 0.6, the “Masking Component Intensity” value ([7]; 10 ppb added) was 1.0 and the “Off-Flavor Intensity” value ([7]; 10 ppb added) was 1.8. The “Masking Component Intensity” value ([7]; 10 ppt added) was 0.0, the “Off-Flavor Intensity” value ([7]; 10 ppt added) was 3.0 and the “Masking Component Intensity” value ([7]; 100 ppb added) was 1.9. The “Off-Flavor Intensity” value ([7]; 100 ppb added) was 1.0, the “Masking Component Intensity” value ([7]; 100 ppt added) was 0.0 and the “Off-Flavor Intensity” value ([7]; 100 ppt added) was 2.9. The “Masking Component Intensity” value ([8]; 1 ppb added) was 0.9, the “Off-Flavor Intensity” value ([8]; 1 ppb added) was 1.8 and the “Masking Component Intensity” value ([8]; 1 ppm added) was 2.8. For the same compound, the “Off-Flavor Intensity” value ([8]; 1 ppm added) was 0.5, the “Masking Component Intensity” value ([8]; 10 ppb added) was 1.3 and the “Off-Flavor Intensity” value ([8]; 10 ppb added) was 1.3. The “Masking Component Intensity” value ([8]; 10 ppt added) was 0.4, the “Off-Flavor Intensity” value ([8]; 10 ppt added) was 2.5 and the “Masking Component Intensity” value ([8]; 100 ppb added) was 2.1. The “Off-Flavor Intensity” value ([8]; 100 ppb added) was 1.0, the “Masking Component Intensity” value ([8]; 100 ppt added) was 0.5 and the “Off-Flavor Intensity” value ([8]; 100 ppt added) was 2.0. For the same compound, the “concentration that masks the off-flavor and does not affect the flavor of the food and/or beverage itself, lower limit” value [9] was no less than 0.01 ppt, the “concentration that masks the off-flavor and does not affect the flavor of the food and/or beverage itself, upper limit” value [9] was no more than 10 ppb and the “concentration that masks the off-flavor and does not affect the flavor of the soymilk itself, lower limit” value [10] was no less than 10 ppt. For the same compound, the “concentration that masks the off-flavor and does not affect the flavor of the soymilk itself, upper limit” value [10] was no more than 1 ppm.

— patent US20250176599A1, “FLAVOR COMPOSITION AND FOOD AND BEVERAGE” (TAKASAGO INTERNATIONAL CORPORATION, priority 2021, published 2025)
